In one test the target is DNA-PK protein complex (Homo sapiens, UniProt P78527). Kind of test: Biochemical DNA-PK assay (FlashPlate). The procedure: The kinase assay is carried out in […] microtitre FlashPlates®, coated with streptavidin. […] The reaction is stopped by addition of 50 μl/well of 200 mM EDTA. After incubation for 30 minutes, the liquids are removed at room temperature. Each well is washed three times with 100 μl of 0.9% NaCl solution. Non-specific reaction (blank) is determined using a proprietary kinase inhibitor (10 μM). The radioactivity is measured by means of a Topcount. […] Todd Eary, J. G. Schiro, H. Huang, L. E. Burgess, E. A. Kesicki, and J. Halbrook.

For a further test, the target named is PI3Kalpha (Homo sapiens, UniProt P42336). Kind of test: Biochemical PI3Kalpha assay (neomycin SPA, lipid phosphorylation). Conditions: human recombinant GST-PI3K. On the procedure: (§1) The efficacy of the compounds according to the invention in the inhibition of PI3K-induced lipid phosphorylation can be investigated in the following binding assay. The assay combines scintillation proximity assay (SPA) technology (Amersham) with the ability of neomycin (a polycationic antibiotic) to bind phospholipids with high affinity and specificity. […] The coating of SPA beads with neomycin allows the detection of phosphorylated lipid substrates after incubation with recombinant PI3K and radioactive ATP in the same well by trapping the radioactive phospholipids by the SPA beads owing to their specific binding to neomycin. […] After incubation at room temperature for 120 minutes with gentle stirring, the reaction was stopped by addition of 200 μl of a solution comprising 250 μg of neomycin-coated PVT-SPA beads, ATP 60 mM and EDTA 6.2 mM in PBS. The assay is incubated at room temperature for a further 60 minutes with gentle stirring in order to enable binding of the phospholipids to the neomycin-SPA beads. After precipitation of the neomycin-coated PVT-SPA beads over 5 minutes at 1500×g, radioactive Ptdlns(3)P is quantified by scintillation counting in a Wallac Micro-Beta™ plate counter.

A further test has as its target PI3Kbeta (Homo sapiens, UniProt P42338). Description: Biochemical PI3Kbeta assay (neomycin SPA, lipid phosphorylation). The following applies: human recombinant GST-PI3K. The procedure:
as §1

For test [1], the system named is PI3K-dependent phosphorylation of PKB at Serin 473 in PC3 cells. Kind of test: Cellular PI3K assay (P-S473-PKB Luminex assay in PC3 cells). The class given is cell-based. The following applies: Homo sapiens, PC-3, 0.5 h; PC3 cells, 30 min, serum-free, P-S473-PKB; read-out: IC50 (cell). The procedure: The cellular assay for determination of the P-S473-PKB level is carried out as a Luminex assay in 96-well format in PC3 cells.
PC3 cells are sown out with 20,000 cells per well in 100 μl medium (45% […]/45% Ham's F12/10% FCS) and incubated on the following day for 30 min with a serial dilution of the test substance (7 concentrations) under serum-free conditions. The cells are subsequently lysed using 90 μl of lysis buffer (20 mM Tris/HCl pH 8.0, 150 mM NaCl, 1% NP40, 10% glycerol, 1% phosphatase inhibitor I, 1% phosphatase inhibitor II, 0.1% protease inhibitor cocktail III, 0.01% benzonase) per well, and the lysates are separated off from insoluble cell constituents by means of centrifugation through a 96-well filter plate (0.65 μm). The lysates are incubated overnight at 4° C. with shaking with Luminex beads to which an anti-total PKB antibody is coupled. The detection is carried out on the following day by addition of a P-S473-PKB antibody and a species-specific PE-labelled secondary antibody. The detection of P-S473-PKB is carried out by measurement in a Luminex100 instrument by determination of 100 events per cavity in a measurement time of 60 sec.

pIC50: −log10 of the molar value. Where only a bound is given, the exact number is not on record here.

The values below come from US8802866B2, “Pyridinylimidazolone derivatives for the inhibition of PI3 kinases” (Merck Patent GmbH, priority 2009, dated 2014).

Sequence of PI3Kbeta (P42338 whole entry): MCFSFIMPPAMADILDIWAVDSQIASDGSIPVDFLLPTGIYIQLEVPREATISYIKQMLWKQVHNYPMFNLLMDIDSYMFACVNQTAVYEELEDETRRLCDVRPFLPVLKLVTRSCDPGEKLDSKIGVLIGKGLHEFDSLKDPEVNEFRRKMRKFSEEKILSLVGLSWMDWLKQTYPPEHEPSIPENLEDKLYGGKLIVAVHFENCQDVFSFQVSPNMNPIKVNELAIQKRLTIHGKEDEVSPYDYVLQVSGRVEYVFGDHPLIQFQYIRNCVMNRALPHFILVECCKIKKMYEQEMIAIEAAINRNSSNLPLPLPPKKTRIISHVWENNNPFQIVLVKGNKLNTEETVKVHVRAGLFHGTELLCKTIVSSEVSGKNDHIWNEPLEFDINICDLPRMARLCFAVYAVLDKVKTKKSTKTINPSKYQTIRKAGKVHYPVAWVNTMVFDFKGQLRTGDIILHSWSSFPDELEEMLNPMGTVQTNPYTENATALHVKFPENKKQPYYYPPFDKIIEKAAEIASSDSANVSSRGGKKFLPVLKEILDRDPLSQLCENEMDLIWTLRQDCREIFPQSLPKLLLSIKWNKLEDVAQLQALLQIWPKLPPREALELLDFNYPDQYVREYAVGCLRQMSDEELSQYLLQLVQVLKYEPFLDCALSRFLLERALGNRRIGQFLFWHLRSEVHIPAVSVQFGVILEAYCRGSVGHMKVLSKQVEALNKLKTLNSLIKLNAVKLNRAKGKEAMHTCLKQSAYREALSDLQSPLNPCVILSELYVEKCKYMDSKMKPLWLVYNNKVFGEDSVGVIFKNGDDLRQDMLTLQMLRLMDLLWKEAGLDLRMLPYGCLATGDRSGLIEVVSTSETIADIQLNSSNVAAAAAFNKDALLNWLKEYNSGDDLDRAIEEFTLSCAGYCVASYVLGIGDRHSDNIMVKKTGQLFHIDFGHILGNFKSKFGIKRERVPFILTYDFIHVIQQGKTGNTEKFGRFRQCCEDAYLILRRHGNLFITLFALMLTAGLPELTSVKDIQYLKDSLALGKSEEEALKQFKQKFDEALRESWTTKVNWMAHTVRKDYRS
Sequence of PI3Kbeta (P27986 whole entry partner): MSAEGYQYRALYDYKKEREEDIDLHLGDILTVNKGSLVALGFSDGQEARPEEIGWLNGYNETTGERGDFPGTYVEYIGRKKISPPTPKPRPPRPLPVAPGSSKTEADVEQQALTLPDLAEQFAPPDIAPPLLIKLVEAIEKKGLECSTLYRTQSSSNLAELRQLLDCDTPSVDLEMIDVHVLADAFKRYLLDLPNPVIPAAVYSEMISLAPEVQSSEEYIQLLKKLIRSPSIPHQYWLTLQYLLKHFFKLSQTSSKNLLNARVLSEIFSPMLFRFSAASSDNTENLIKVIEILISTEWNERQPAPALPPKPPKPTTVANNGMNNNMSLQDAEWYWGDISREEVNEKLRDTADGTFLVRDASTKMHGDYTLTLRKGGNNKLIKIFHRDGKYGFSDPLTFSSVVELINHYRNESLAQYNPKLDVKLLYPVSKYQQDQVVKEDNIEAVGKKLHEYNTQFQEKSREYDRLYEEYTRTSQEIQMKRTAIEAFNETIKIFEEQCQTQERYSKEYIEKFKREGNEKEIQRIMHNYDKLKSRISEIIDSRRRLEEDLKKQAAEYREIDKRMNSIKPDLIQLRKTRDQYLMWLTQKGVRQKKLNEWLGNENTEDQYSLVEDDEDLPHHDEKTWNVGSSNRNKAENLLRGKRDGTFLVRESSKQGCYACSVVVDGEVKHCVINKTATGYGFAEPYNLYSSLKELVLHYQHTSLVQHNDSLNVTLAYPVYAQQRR
Sequence of PI3Kalpha (P42336 whole entry): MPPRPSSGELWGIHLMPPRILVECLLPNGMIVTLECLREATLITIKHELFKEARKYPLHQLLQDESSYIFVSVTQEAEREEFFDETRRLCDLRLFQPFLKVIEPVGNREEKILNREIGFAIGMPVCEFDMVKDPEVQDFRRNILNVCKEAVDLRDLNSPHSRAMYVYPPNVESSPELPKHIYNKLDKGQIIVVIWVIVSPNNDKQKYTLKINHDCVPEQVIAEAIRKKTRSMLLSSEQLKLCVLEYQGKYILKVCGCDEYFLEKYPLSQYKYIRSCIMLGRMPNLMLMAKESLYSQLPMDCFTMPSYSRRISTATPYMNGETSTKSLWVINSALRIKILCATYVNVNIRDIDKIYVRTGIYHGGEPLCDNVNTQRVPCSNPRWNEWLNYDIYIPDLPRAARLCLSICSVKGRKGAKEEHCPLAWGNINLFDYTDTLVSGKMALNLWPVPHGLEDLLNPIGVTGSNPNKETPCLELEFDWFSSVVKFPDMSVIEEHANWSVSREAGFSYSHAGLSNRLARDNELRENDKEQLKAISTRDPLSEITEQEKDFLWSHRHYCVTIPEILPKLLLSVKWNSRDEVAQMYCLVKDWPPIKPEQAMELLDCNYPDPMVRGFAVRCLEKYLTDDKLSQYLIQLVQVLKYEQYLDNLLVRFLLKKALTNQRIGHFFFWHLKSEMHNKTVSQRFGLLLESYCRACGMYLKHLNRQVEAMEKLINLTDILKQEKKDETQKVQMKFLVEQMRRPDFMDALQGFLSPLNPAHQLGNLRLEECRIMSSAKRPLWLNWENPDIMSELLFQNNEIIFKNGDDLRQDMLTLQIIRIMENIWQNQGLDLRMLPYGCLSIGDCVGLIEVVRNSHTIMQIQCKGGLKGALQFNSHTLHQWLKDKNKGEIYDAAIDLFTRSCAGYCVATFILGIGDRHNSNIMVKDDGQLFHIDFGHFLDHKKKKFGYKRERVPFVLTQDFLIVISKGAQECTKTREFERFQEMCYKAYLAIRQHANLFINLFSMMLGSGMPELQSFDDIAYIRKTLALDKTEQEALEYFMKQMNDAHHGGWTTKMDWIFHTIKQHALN
Sequence of PI3Kalpha (P27986 whole entry partner): as the sequence (P27986 whole entry partner) above

`Cn1cc(-c2cncc(-c3cnc4ccccc4c3)c2)n(-c2ccc(C(C)(C)C#N)cc2)c1=O` [Example A2, 2-Methyl-2-{4-[3-methyl-2-oxo-5-(5-quinolin-3-ylpyridin-3-yl)-2,3-dihydroimidazol-1-yl]phenyl}propionitrile] had a pIC50 at DNA-PK protein complex of 5.00 to 7.00.

With `Cn1cc(-c2cc(-c3cnc4c(ccn4C)c3)ccn2)n(-c2ccc(C(C)(C)C#N)cc2)c1=O` [Example A54, 2-Methyl-2-(4-{3-methyl-5-[4-(1-methyl-1H-pyrrolo[2,3-b]pyridin-5-yl)pyridin-2-yl]-2-oxo-2,3-dihydroimidazol-1-yl}phenyl)propionitrile], the pIC50 on PI3Kalpha is 5.00 to 7.00; at PI3Kbeta, 5.00 to 7.00; in test [1], 5.00 to 7.00; against DNA-PK protein complex it was 7.00 to 10.00.

Turning to `CC(=O)Nc1ncc(-c2ccnc(-c3cn(C)c(=O)n3-c3cccc(C#N)c3)c2)cc1C(F)(F)F` [Example A68, N-{2′-[3-(3-Cyanophenyl)-1-methyl-2-oxo-2,3-dihydro-1H-imidazol-4-yl]-5-trifluoromethyl-[3,4′]bipyridinyl-6-yl}acetamide], the pIC50 at PI3Kalpha is 5.00 to 7.00; on PI3Kbeta, below 5.00; in test [1], 5.00 to 7.00; against DNA-PK protein complex, 5.00 to 7.00.

Consider `Cn1cc(-c2cc(-c3cnc(N)c(C#N)n3)ccn2)n(-c2ccc(C(C)(C)C#N)cc2)c1=O` [Example A70, 3-Amino-6-(2-{3-[4-(cyanodimethylmethyl)phenyl]-1-methyl-2-oxo-2,3-dihydro-1H-imidazol-4-yl}pyridin-4-yl)pyrazine-2-carbonitrile], for which the pIC50 (on PI3Kalpha; at PI3Kbeta; in test [1]; against DNA-PK protein complex) was 5.00 to 7.00 each time.

`Cn1cc(-c2cc(-c3cnc4[nH]ccc4n3)ccn2)n(-c2ccc(C(C)(C)C#N)cc2)c1=O` [Example A78, 2-Methyl-2-(4-{3-methyl-2-oxo-5-[4-(5H-pyrrolo[2,3-b]pyrazin-2-yl)pyridin-2-yl]-2,3-dihydroimidazol-1-yl}phenyl)propionitrile]: the pIC50 (on PI3Kalpha; at PI3Kbeta; in test [1]; against DNA-PK protein complex) was 5.00 to 7.00 each time.

Regarding `Cn1cc(-c2cc(-c3cnc4nccnc4c3)ccn2)n(-c2ccc(C(C)(C)C#N)cc2)c1=O` [Example A81, 2-Methyl-2-{4-[3-methyl-2-oxo-5-(4-pyrido[2,3-b]pyrazin-7-ylpyridin-2-yl)-2,3-dihydroimidazol-1-yl]phenyl}propionitrile], the pIC50 was 5.00 to 7.00 on PI3Kalpha, 5.00 to 7.00 at PI3Kbeta, below 5.00 in test [1] and 7.00 to 10.00 against DNA-PK protein complex.

As to `CN1CCN(c2ccc(-n3c(-c4cc(-c5cnc(N)c(C(F)(F)F)c5)ccn4)cn(C)c3=O)cc2C#N)CC1` [Example A82, 5-[5-(6-Amino-5-trifluoromethyl-[3,4′]bipyridinyl-2′-yl)-3-methyl-2-oxo-2,3-dihydroimidazol-1-yl]-2-(4-methylpiperazin-1-yl)benzonitrile], the pIC50 at PI3Kalpha was 5.00 to 7.00; at PI3Kbeta, 5.00 to 7.00; in test [1], 5.00 to 7.00; against DNA-PK protein complex, 7.00 to 10.00.

For the compound `CNCc1ccc(-c2ccnc(-c3cn(C)c(=O)n3-c3ccc(C(C)(C)C#N)cc3)c2)cn1` [Example A95, 2-Methyl-2-{4-[3-methyl-5-(6-methylaminomethyl-[3,4′]bipyridinyl-2′-yl)-2-oxo-2,3-dihydroimidazol-1-yl]phenyl}propionitrile], the pIC50 is below 5.00 at PI3Kalpha, below 5.00 at PI3Kbeta, below 5.00 in test [1] and 5.00 to 7.00 on DNA-PK protein complex.

For `Cn1cc(-c2cc(-c3c[nH]c4ncccc34)ccn2)n(-c2ccc(C(C)(C)C#N)cc2)c1=O` [Example A100, 2-Methyl-2-(4-{3-methyl-2-oxo-5-[4-(1H-pyrrolo[2,3-b]pyridin-3-yl)pyridin-2-yl]-2,3-dihydroimidazol-1-yl}phenyl)propionitrile], the pIC50 (on PI3Kalpha; at PI3Kbeta; in test [1]; at DNA-PK protein complex) was 5.00 to 7.00 throughout.

Regarding `CN1CCN(c2ccc(-n3c(-c4cc(-c5ccc6[nH]ccc6c5)ccn4)cn(C)c3=O)cc2C(F)(F)F)CC1` [Example A102, 4-[4-(1H-Indol-5-yl)pyridin-2-yl]-1-methyl-3-[4-(4-methylpiperazin-1-yl)-3-trifluoromethylphenyl]-1,3-dihydroimidazol-2-one], the pIC50 (at PI3Kalpha; in test [1]; against DNA-PK protein complex) was 5.00 to 7.00 throughout.

Take `CN1CCN(c2ccc(-n3c(-c4cc(-c5cnc(N)c(C(F)(F)F)c5)ccn4)cn(C)c3=O)cc2C(F)(F)F)CC1` [Example A103, 4-(6-Amino-5-trifluoromethyl-[3,4′]bipyridinyl-2′-yl)-1-methyl-3-[4-(4-methyl-piperazin-1-yl)-3-trifluoromethylphenyl]-1,3-dihydroimidazol-2-one]: the pIC50 (on PI3Kalpha; at PI3Kbeta; in test [1]; against DNA-PK protein complex) was 5.00 to 7.00 each time.

Turning to `Cc1cc2cc(-c3ccnc(-c4cn(C)c(=O)n4-c4cccc(Oc5ccccc5)c4)c3)cnc2[nH]1` [Example A104, 1-Methyl-4-[4-(2-methyl-1H-pyrrolo[2,3-b]pyridin-5-yl)pyridin-2-yl]-3-(3-phenoxy-phenyl)-1,3-dihydroimidazol-2-one], the pIC50 on PI3Kalpha is 5.00 to 7.00; in test [1] it was 5.00 to 7.00; against DNA-PK protein complex, 7.00 to 10.00.

For the compound `Cn1cc(-c2cc(-c3cnc4[nH]ccc4c3)ccn2)n(-c2ccc(N3CCN(Cc4cccnc4)CC3)c(C(F)(F)F)c2)c1=O` [Example A106, 1-Methyl-3-[4-(4-pyridin-3-ylmethylpiperazin-1-yl)-3-trifluoromethylphenyl]-4-[4-(1H-pyrrolo[2,3-b]pyridin-5-yl)pyridin-2-yl]-1,3-dihydroimidazol-2-one], the pIC50 was 7.00 to 10.00 in test [1] and 5.00 to 7.00 at DNA-PK protein complex.

For the compound `Cn1cc(-c2cc(-c3cc(F)c(N)c(C(F)(F)F)c3)ccn2)n(-c2ccc(C(C)(C)C#N)cc2)c1=O` [Example A107, 2-(4-{5-[4-(4-Amino-3-fluoro-5-trifluoromethylphenyl)pyridin-2-yl]-3-methyl-2-oxo-2,3-dihydroimidazol-1-yl}phenyl)-2-methylpropionitrile], the pIC50 is 5.00 to 7.00 in test [1] and 7.00 to 10.00 against DNA-PK protein complex.

Regarding `COc1ccc(Cn2c(-c3cc(-c4cnc(NC(C)=O)c(C(F)(F)F)c4)ccn3)cn(C)c2=O)cc1` [Example A111, N-{2′-[3-(4-Methoxybenzyl)-1-methyl-2-oxo-2,3-dihydro-1H-imidazol-4-yl]-5-trifluoromethyl-[3,4′]bipyridinyl-6-yl}acetamide], the pIC50 (on PI3Kalpha; at PI3Kbeta; in test [1]; at DNA-PK protein complex) was below 5.00 throughout.
